From patent US10167517B2, “MIPOL1-ETV1 gene rearrangements” (THE REGENTS OF THE UNIVERSITY OF MICHIGAN, priority 2007, dated 2019) come the findings set out here.

Each structure is given as a SMILES string.

In this experiment the test system is LNCaP cells. The experiment in a line: Androgen regulation of gene expression by qPCR in LNCaP cells stimulated with R1881. The note with it: target gene to GAPDH ratio. It is filed as cell-based. An excerpt: FIG. 6, a illustrates the tissue specificity of the 4 contiguous genes in the 14q13.3-14q21.1 region which was interrogated in the expo dataset (using Oncomine) and expression (in normalized expression units) is shown for 28 distinct tumor types and prostate cancer. FIG. 6, b and -c illustrate androgen regulation of the contiguous 14q13.3-14q21.1 genes (FIG. 6, b) and ETV1 (FIG. 6, c), as determined by qPCR in LNCaP cells with (+) or without (−) stimulation by the synthetic androgen R1881. Ratios of target gene to GAPDH (mean (n=4)+S.E.) are shown. FIG. 6, d illustrates that LNCaP and its androgen insensitive derivative, C4-2B, were profiled using a microarray (Agilent Whole Genome Microarrays), in which the top ten most differentially expressed features (LNCaP/C4-2B) are shown. FIG. 6, e-g illustrate qPCR results that show decreased expression of androgen regulated genes in C4-2B compared to LNCaP, for markers ETV1 (FIG. 6, e) and PSA (FIG. 6, f), and the 4 contiguous transcripts at 14q13.3-14q21.1 (FIG. 6, g).
Additional prostate cancer cell lines were tested to screen for ERG and ETV1 expression by quantitative PCR (qPCR), to identify additional genetic rearrangements. The following cells were tested: an immortalized benign prostate epithelial cell line (RWPE) and 8 prostate cancer cell lines (MDA-PCa 2B, LNCaP, VCaP, LAPC4, 22Rv1, NCI-H660, PC3 and DU145). Quantitative PCR (QPCR) was performed by using the oligonucleotide primers shown in Table 1 (“Fusion QPCR” and “Androgen QPCR” sections) with standard laboratory procedures and reagents (Power SYBR Green Mastermix and 7300 Real Time PCR system, Applied Biosystems, Foster City, Calif.). All oligonucleotide primers were synthesized by standard methods (performed by Integrated DNA Technologies, Coralville, Iowa). HMBS and GAPDHS, and PSA6 primers were as described previously (Vandesompele et al., Genome Biol. 3:RESEARCH0034 (2002); Specht et al., Am J. Pathol. 158: 419 (2001)). Androgen stimulation reactions were performed in quadruplicate, and all other reactions were performed in duplicate.

As for `C[C@]1(O)CC[C@H]2[C@@H]3CCC4=CC(=O)CCC4=C3C=C[C@@]21C` [R1881], the “expression of ETV1 following R1881 stimulation” value (with vs without R1881, p=0.0004) stood at 1.8 fold. The “expression of SLC25A21 following R1881 stimulation” value (with vs without R1881, p=0.008) is recorded as 0.75 fold. Further, for the setting “with vs without R1881, p=0.05”, the “expression of FOXA1 following R1881 stimulation” value is reported as 1.3 fold. Further, under “with vs without R1881, p=0.08”, the “expression of MIPOL1 following R1881 stimulation” value came to 1.2 fold. Moreover, the “expression of TTC6 following R1881 stimulation” value (with vs without R1881, p=0.10) is 0.70 fold.
